Where a name gives a salt, the structure may show the parent alone.
What was measured:
[1] = tested on: gastric cancer cells NUGC-3; test: Assay 4: anticancer activity against cultured gastric cancer cells (MTT assay); type: cell-based; conditions: Homo sapiens, NUGC-3, 48 hour cultivation
Procedure: (§1) Colon cancer cells DLD-1 were maintained and subcultured in RPMI 1640 medium (containing 10% calf serum). Each of the test compounds (SRAG1 to SRAG3 shown in Table 1) was suspended and diluted in the medium, and then the cancer cells were cultivated together with the medium in a 96-well plate at 3×10^3 cells/well. After 48 hour cultivation, the MTT assay (Mosmann, T: Journal of Immunological Method, 65, 55-63 (1983)) was carried out to compare survival rates.
An assay on anticancer activity against cultured gastric cancer cells was carried out in the same manner as in the assay 3 except that gastric cancer cells NUGC-3 were used instead of the colon cancer cells DLD-1.

DNA polymerase α = target: T1, DNA polymerase α (Bos taurus, UniProt A0AAA9TD94); test: Assay 1: inhibitory effect against DNA polymerase α ([3H]-dTTP incorporation); type: biochemical; conditions: DNA polymerase α from bovine thymus, 0.05 U, 37° C., 60 minutes
T1 construct: from tissue; host or cells: bovine thymus
T1 sequence (A0AAA9TD94 1-1441): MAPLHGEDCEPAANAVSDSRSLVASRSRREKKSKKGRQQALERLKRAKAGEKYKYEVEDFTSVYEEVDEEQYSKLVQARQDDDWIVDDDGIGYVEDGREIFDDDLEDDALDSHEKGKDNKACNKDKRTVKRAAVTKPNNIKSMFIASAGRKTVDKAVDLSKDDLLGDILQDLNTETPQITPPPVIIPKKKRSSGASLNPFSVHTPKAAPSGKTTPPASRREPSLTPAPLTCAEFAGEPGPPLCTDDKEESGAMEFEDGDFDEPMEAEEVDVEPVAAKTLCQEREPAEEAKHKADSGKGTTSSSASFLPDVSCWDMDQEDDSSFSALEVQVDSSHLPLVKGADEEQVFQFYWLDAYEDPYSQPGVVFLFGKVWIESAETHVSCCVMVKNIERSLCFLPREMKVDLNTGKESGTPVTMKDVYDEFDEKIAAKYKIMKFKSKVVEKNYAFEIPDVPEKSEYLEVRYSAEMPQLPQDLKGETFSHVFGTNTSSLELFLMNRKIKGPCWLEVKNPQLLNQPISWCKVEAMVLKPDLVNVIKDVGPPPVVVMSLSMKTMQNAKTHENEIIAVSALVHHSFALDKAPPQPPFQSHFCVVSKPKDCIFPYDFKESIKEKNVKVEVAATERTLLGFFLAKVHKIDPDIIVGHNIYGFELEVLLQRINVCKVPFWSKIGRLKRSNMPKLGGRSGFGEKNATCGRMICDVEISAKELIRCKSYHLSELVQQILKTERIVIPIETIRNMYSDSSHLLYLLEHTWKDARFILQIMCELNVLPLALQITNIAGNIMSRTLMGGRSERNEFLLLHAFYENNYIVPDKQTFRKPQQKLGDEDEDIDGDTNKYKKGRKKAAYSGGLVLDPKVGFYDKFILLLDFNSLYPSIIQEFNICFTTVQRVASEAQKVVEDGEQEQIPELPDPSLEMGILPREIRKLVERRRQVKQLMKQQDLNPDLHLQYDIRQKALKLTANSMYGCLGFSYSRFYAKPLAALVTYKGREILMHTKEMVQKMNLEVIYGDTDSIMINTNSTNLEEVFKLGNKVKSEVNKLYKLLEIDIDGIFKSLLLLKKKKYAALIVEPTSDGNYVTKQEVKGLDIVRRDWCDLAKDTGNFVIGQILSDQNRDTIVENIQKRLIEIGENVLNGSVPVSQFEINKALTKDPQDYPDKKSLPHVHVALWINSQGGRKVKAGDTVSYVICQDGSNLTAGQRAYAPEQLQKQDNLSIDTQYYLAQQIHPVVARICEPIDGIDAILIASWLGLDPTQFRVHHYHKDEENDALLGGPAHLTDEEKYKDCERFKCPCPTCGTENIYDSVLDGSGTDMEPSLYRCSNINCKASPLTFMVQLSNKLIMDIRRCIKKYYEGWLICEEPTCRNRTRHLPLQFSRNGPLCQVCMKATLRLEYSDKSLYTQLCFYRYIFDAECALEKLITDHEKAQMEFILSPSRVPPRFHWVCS
Procedure: An assay on inhibitory effect against a DNA polymerase α was carried out in the following manner.
(§2) Each mixture was added with a buffer containing inorganic salts for the enzymatic reaction, [^3H]-labeled dTTP and compounds for reaction containing a template DNA strand, and incubated at 37° C. for 60 minutes.
(§3) After the enzymatic reaction was quenched, the resultant reaction product was fixed on a dedicated filter and subjected to measurement by a liquid scintillation counter. The amount of enzymatically incorporated dTTP was calculated as a radiation dose (cpm) of [^3H]. Note that, each of the sulforhamnosylacylglycerol derivatives is a mixture of the S- and R-configurations with respect to an absolute configuration of the carbon of the 2-position of the glycerol moiety.

Colon cancer cells DLD-1 = test: Assay 3: anticancer activity against cultured colon cancer cells (MTT assay); type: cell-based; conditions: Homo sapiens, DLD-1, 48 hour cultivation
Procedure: An assay on anticancer activity against cultured colon cancer cells was carried out in the following manner.
as §1

DNA polymerase β = target: T2, DNA polymerase β (Rattus norvegicus, UniProt P06766); test: Assay 2: inhibitory effect against DNA polymerase β ([3H]-dTTP incorporation); type: biochemical; conditions: for inhibitory effect against the DNA polymerase β (in words): at the tested concentrations, summary of Table 2; for IC50: recombinant rat DNA polymerase β, 0.05 U, 37° C., 60 minutes
T2 construct: made in house; host or cells: E. coli
Procedure: as §2, §3
An assay on inhibitory effect against a DNA polymerase β was carried out in the following manner.
The same procedure as in Assay 1 was carried out except that 0.05 U of DNA polymerase β was used in place of the DNA polymerase α. The DNA polymerase β was prepared from recombinant E. coli introduced with rat DNA polymerase β gene. In this way, the inhibitory effect of test compounds (SRAG1, SRAG2 and SRAG3 shown in Table 1 and dissolved in DMSO) against DNA polymerase : was assayed.

Row | SMILES | IC50 [1] [µg/mL] | IC50 (DNA polymerase α) [µM] | IC50 (Colon cancer cells DLD-1) [µg/mL] | inhibitory effect against the DNA polymerase β (in words) (DNA polymerase β) | IC50 (DNA polymerase β) [µM]
1 | CCCCCCCCCCCCCC(=O)OCC(O)CO[C@H]1O[C@H](CS(=O)(=O)[O-])[C@@H](O)[C@H](O)[C@@H]1O.[Na+] (stereo partly drawn) [SRAG1, 3-O-(6-deoxy-6-sulfo-α-D-mannopyranosyl)-1-O-myristoyl-glycerol sodium salt] | 45 | 23.6 | 42.5 | did not show an inhibitory effect | > 90.8
2 | CCCCCCCCCCCCCCCC(=O)OCC(O)CO[C@H]1O[C@H](CS(=O)(=O)[O-])[C@@H](O)[C@H](O)[C@@H]1O.[Na+] (stereo partly drawn) [SRAG2, 3-O-(6-deoxy-6-sulfo-α-D-mannopyranosyl)-1-O-palmitoyl-glycerol sodium salt] | 40 | 5.7 | 30 | significant inhibitory activity | 28.7
3 | CCCCCCCCCCCCCCCCCC(=O)OCC(O)CO[C@H]1O[C@H](CS(=O)(=O)[O-])[C@@H](O)[C@H](O)[C@@H]1O.[Na+] (stereo partly drawn) [SRAG3, 3-O-(6-deoxy-6-sulfo-α-D-mannopyranosyl)-1-O-stearoyl-glycerol sodium salt] | 28.5 | 3.3 | 14 | significant inhibitory activity | 11.1
4 | CCCCCCCCCCCCCCCCCC(=O)OCC(CO[C@H]1O[C@H](CS(=O)(=O)O)[C@@H](O)[C@H](O)[C@@H]1O)OC(=O)CCCCCCCCCCCCCCCCC (stereo partly drawn) [SRAG4, 3-O-(6-deoxy-6-sulfo-α-D-mannopyranosyl)-1,2-di-O-stearoyl-glycerol sodium salt] |  | 0.115 |  |  | 
